Data set [1] can be described thus: Apparent permeability in MDCK cells. The format is ADME, cell-based, Canis lupus familiaris. Particulars: dog.
Data set [2] addresses Voltage-gated inwardly rectifying potassium channel KCNH2 (Homo sapiens, UniProt Q12809). In words: Inhibition of human ERG.
Data set [3] is described as follows: Apparent permeability in human Caco2 cells. Type of data set: ADME, cell-based, Caco-2. On the technique in general: Caco-2 cells form a polarised layer with tight junctions and transporters.
The target of data set [4] is T1, Protein deacetylase HDAC6 (Homo sapiens, UniProt Q9UBN7).
T1 sequence (Q9UBN7 whole entry): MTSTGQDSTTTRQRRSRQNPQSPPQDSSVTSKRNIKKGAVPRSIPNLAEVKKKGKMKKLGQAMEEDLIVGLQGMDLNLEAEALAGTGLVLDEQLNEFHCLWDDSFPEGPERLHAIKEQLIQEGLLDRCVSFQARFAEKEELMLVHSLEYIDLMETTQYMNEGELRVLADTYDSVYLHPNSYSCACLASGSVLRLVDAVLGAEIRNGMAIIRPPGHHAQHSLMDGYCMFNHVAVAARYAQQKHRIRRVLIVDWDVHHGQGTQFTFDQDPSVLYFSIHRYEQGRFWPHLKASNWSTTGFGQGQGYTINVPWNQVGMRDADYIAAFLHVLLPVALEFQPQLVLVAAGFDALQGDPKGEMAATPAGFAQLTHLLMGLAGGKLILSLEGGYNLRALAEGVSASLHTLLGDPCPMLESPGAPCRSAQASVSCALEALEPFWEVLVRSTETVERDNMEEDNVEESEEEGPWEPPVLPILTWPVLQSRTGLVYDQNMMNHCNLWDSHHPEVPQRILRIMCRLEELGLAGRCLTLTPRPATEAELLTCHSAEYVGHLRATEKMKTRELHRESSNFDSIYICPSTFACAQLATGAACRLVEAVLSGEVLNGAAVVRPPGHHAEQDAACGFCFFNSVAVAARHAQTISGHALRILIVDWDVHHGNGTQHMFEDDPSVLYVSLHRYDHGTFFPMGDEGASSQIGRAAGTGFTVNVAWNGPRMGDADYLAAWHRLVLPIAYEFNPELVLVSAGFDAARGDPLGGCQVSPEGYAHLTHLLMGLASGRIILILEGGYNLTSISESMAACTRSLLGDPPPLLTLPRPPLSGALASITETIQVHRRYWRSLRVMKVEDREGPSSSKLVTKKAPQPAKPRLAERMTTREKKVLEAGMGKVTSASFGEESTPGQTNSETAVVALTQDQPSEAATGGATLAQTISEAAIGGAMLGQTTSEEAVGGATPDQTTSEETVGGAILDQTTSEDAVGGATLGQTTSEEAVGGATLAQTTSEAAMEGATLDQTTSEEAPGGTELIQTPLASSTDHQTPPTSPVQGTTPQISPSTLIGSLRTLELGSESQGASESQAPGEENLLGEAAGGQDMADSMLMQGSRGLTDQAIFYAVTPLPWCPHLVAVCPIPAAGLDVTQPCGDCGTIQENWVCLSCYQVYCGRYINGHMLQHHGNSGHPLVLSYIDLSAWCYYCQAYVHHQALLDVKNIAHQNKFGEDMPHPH
Nature of the data set: Inhibition of N-terminal GST-tagged recombinant human HDAC6 expressed in baculovirus infected Sf9 insect cells using Z-(Ac)Lys-AMC as substrate measured after 90 mins by fluorescence assay.

In data set [5] the test system is CAL-27. Nature of the data set: Cytotoxicity against human CAL27 cells assessed as cell survival after 72 hrs by MTT assay. The format is functional, cell-based. Particulars: CAL-27, 72 h. For orientation: Formazan colour is commonly taken as a measure of viable cells.
For data set [6], the target named is Histone deacetylase 2 (Homo sapiens, UniProt Q92769). In words: Inhibition of full length human recombinant C-terminal FLAG-tagged HDAC2 expressed in baculovirus infected Sf9 insect cells using Boc-Lys(epsilon-Ac)-AMC as substrate measured after 90 mins by fluorescence assay. The format is cell-based.
Histone deacetylase 2, sequence (Q92769 whole entry): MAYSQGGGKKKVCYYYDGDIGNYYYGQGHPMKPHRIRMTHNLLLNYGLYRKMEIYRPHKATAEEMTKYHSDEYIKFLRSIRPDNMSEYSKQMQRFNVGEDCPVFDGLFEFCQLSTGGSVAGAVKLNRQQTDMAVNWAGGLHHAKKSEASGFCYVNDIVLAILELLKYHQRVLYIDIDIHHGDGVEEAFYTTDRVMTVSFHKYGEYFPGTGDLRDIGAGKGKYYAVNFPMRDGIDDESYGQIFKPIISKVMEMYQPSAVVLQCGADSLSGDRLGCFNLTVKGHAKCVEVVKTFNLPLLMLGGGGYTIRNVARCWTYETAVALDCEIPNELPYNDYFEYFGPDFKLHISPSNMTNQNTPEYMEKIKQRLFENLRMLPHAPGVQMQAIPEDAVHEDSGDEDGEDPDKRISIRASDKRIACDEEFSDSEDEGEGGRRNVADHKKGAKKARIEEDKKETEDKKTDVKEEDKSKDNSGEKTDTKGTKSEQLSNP
Data set [7] concerns A2780. Nature of the data set: Cytotoxicity against human A2780 cells assessed as cell survival after 72 hrs by MTT assay. The format is functional, cell-based. Particulars: A2780, 72 h.
The target in data set [8] is T2, Histone deacetylase 1/2/3/6 (Homo sapiens, UniProt Q13547+O15379+Q9UBN7+Q92769). In words: Inhibition of HDAC1/2/3/6 in human Cal27CisR cells using Boc-Lys(epsilon-Ac)-AMC as substrate preincubated for 18 hrs followed by substrate addition measured after 3 hrs by fluorescence assay. Type of data set: cell-based.
Data set [9] in a line: Cytotoxicity against human Cal27CisR cells assessed as cell survival after 72 hrs by MTT assay. Type of data set: functional, cell-based.
Data set [10] has as its target Histone deacetylase 1 (Homo sapiens, UniProt Q13547). In words: Inhibition of C-terminal FLAG/His-tagged recombinant human HDAC1 expressed in baculovirus infected Sf9 insect cells using Z-(Ac)Lys-AMC as substrate measured after 90 mins by fluorescence assay.
Data set [11] concerns the target T2, Histone deacetylase 1/2/3/6. Nature of the data set: Inhibition of HDAC1/2/3/6 in human A2780 cells using Boc-Lys(epsilon-Ac)-AMC as substrate preincubated for 18 hrs followed by substrate addition measured after 3 hrs by fluorescence assay. The format is cell-based.
For data set [12], the target named is Histone deacetylase 3/Nuclear receptor corepressor 2 (HDAC3/NCoR2) (Homo sapiens, UniProt O15379). Nature of the data set: Inhibition of full length human recombinant C-terminal His-tagged HDAC3/NcoR2 expressed in baculovirus infected Sf9 insect cells using Boc-Lys(epsilon-Ac)-AMC as substrate measured after 90 mins by fluorescence assay.
Histone deacetylase 3/Nuclear receptor corepressor 2 (HDAC3/NCoR2), sequence (O15379 whole entry): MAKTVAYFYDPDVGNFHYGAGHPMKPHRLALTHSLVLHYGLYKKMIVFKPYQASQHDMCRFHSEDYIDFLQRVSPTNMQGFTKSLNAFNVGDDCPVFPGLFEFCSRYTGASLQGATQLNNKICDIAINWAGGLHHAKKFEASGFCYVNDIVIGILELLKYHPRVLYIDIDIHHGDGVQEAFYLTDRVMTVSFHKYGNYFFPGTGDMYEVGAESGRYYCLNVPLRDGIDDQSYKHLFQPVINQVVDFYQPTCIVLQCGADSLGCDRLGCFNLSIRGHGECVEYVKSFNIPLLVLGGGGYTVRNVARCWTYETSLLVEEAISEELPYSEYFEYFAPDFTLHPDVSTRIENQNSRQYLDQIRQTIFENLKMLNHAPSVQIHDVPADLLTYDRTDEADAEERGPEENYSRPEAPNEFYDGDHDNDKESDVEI
Histone deacetylase 3/Nuclear receptor corepressor 2 (HDAC3/NCoR2), sequence (Q9Y618 whole entry, further chain): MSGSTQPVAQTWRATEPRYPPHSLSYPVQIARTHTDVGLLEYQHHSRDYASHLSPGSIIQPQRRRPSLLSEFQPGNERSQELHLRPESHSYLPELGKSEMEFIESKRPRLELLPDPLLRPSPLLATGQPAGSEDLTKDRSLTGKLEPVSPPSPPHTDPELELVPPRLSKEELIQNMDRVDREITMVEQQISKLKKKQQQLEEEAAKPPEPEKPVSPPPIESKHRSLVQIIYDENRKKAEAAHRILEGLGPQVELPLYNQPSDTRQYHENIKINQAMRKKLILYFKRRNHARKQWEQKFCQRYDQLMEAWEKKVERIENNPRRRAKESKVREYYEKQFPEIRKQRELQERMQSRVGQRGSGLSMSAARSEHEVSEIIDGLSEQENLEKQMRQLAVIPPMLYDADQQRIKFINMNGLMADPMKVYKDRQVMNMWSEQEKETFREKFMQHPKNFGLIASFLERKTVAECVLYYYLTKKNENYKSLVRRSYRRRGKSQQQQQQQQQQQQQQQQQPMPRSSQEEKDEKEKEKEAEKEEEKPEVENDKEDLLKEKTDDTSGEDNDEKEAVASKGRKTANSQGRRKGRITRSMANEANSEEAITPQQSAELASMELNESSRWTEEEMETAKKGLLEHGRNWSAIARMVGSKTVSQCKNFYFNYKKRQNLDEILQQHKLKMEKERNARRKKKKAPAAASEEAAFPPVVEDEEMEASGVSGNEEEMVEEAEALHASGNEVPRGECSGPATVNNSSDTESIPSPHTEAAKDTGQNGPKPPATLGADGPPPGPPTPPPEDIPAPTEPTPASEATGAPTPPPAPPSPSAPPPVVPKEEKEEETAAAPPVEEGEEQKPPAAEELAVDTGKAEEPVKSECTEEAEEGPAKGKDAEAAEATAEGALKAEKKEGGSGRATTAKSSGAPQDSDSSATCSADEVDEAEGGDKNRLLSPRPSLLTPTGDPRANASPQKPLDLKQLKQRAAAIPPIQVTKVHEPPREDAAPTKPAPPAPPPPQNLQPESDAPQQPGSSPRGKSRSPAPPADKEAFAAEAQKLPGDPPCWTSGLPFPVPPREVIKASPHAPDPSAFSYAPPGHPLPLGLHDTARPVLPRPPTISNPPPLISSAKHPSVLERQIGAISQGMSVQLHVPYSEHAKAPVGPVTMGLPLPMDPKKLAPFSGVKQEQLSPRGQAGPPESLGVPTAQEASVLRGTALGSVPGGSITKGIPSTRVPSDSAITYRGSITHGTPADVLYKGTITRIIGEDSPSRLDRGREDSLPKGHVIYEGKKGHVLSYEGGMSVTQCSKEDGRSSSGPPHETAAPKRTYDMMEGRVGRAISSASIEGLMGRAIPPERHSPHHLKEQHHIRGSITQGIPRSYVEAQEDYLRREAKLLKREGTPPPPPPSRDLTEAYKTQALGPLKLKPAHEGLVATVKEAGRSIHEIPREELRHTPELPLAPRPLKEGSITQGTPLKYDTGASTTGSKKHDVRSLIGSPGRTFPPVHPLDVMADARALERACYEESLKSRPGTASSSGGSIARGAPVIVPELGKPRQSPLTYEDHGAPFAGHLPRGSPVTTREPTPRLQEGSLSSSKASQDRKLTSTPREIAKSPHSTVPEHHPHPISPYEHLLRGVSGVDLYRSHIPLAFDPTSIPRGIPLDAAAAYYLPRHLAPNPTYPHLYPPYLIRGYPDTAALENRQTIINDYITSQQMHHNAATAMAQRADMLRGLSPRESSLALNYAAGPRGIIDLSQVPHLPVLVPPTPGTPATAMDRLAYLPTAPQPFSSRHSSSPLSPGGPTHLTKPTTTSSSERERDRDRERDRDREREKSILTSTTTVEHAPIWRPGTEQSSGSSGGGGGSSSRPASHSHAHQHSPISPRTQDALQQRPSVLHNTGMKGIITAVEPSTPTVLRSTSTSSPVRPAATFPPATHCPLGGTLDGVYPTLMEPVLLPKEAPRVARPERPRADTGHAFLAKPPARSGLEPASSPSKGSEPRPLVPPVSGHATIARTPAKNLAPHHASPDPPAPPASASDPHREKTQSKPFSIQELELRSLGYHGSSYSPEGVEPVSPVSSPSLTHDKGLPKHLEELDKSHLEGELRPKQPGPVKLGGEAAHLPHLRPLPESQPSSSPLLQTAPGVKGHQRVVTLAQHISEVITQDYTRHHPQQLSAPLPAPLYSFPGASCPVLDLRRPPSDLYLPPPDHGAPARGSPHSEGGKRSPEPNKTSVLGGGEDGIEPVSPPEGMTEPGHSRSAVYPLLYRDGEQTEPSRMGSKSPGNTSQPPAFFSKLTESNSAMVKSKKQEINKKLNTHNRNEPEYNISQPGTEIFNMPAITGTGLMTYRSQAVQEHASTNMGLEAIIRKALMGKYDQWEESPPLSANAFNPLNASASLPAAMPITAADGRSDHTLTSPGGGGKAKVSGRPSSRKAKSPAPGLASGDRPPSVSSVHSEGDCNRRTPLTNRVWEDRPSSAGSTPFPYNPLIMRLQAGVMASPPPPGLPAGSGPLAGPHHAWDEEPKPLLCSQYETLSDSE
The target in data set [13] is T3, Histone deacetylase 8 (Homo sapiens, UniProt Q9BY41).
T3 sequence (Q9BY41 whole entry): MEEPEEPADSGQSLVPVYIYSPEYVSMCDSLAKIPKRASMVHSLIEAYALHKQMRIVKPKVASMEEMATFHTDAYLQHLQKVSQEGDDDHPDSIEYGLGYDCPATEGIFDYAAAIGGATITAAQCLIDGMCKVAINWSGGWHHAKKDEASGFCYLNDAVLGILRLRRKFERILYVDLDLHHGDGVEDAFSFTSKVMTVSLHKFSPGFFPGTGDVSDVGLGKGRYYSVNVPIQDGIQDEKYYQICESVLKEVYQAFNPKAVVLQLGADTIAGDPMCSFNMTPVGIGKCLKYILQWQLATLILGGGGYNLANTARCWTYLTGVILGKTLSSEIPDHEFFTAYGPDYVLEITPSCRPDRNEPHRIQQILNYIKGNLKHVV
Nature of the data set: Inhibition of human recombinant HDAC8 expressed in Escherichia coli using Z-L-Lys(epsilon-trifluoroacetyl)-AMC as substrate measured after 90 mins by fluorescence assay.

The subject of data set [14] is A2780cisR. In words: Cytotoxicity against human A2780cisR cells assessed as cell survival after 72 hrs by MTT assay. The format is functional, cell-based.
Data set [15] concerns the target T2, Histone deacetylase 1/2/3/6. In words: Inhibition of HDAC1/2/3/6 in human A2780cisR cells using Boc-Lys(epsilon-Ac)-AMC as substrate preincubated for 18 hrs followed by substrate addition measured after 3 hrs by fluorescence assay. Type of data set: cell-based.
Data set [16] shares this target. In words: Inhibition of HDAC1/2/3/6 in human Cal27 cells using Boc-Lys(epsilon-Ac)-AMC as substrate preincubated for 18 hrs followed by substrate addition measured after 3 hrs by fluorescence assay. Type of data set: cell-based.
For data set [17] the target is unchanged. Nature of the data set: Inhibition of HDAC1/2/3/6 in human CAL27 cells assessed as potentiation of cisplatin-induced cytotoxicity preincubated for 48 hrs followed by cisplatin addition measured after 72 hrs by MTT assay relative to control. Type of data set: cell-based.
Data set [18] can be described thus: Induction of apoptosis in human Cal27CisR cells at 250 to 500 nM incubated for 48 hrs by flow cytometry assay. The format is cell-based. As to conditions: 0.5 µM.
Data set [19] addresses T4, Histone deacetylase 1/2/3 (Homo sapiens) (UniProt Q13547+O15379+Q92769). Nature of the data set: Inhibition of HDAC1/2/3 in human Cal27 cells assessed as increase in acetylation of histone H3 at 10 uM after 24 hrs by Western blot method. The format is cell-based. (In general: Immunoblotting shows a protein as a band on a membrane.)
Data set [20] has as its target T2, Histone deacetylase 1/2/3/6. Nature of the data set: Inhibition of HDAC1/2/3/6 in human Cal27 cells assessed as potentiation of cisplatin-induced apoptosis at 250 to 500 nM preincubated for 48 hrs followed by cisplatin addition by flow cytomertry assay. The format is cell-based.
In data set [21] the test system is CAL-27. Nature of the data set: Induction of apoptosis in human CAL27 cells at 250 to 500 nM incubated for 48 hrs by flow cytometry assay. Type of data set: cell-based. As to conditions: cal-27, 48 h, 0.5 µM.
Data set [22] concerns the target T5, Protein deacetylase HDAC6 (Homo sapiens) (UniProt Q9UBN7).
T5 sequence (whole entry): T1 sequence (Q9UBN7 whole entry)
In words: Inhibition of HDAC6 in human Cal27CisR cells assessed as increase in acetylation of alpha-tubulin at 10 uM after 24 hrs by Western blot method. The format is cell-based.

Data set [23] concerns the target T4, Histone deacetylase 1/2/3 (Homo sapiens). Nature of the data set: Inhibition of HDAC1/2/3 in human Cal27CisR cells assessed as increase in acetylation of histone H3 at 10 uM after 24 hrs by Western blot method. The format is cell-based.
In data set [24] the target is T5, Protein deacetylase HDAC6 (Homo sapiens). In words: Inhibition of HDAC6 in human Cal27 cells assessed as increase in acetylation of alpha-tubulin at 10 uM after 24 hrs by Western blot method. The format is cell-based.
Data set [25] addresses T2, Histone deacetylase 1/2/3/6. Nature of the data set: Inhibition of HDAC1/2/3/6 in human Cal27CisR cells assessed as potentiation of cisplatin-induced cytotoxicity preincubated for 48 hrs followed by cisplatin addition measured after 72 hrs by MTT assay relative to control. The format is cell-based.
Data set [26] has the same target. In words: Inhibition of HDAC1/2/3/6 in human Cal27CisR cells assessed as potentiation of cisplatin-induced apoptosis at 250 to 500 nM preincubated for 48 hrs followed by cisplatin addition by flow cytomertry assay. Type of data set: cell-based.

Several values for one entry are separate records, joined by “and”; a condition that tells them apart may be missing. Equal entries are not always repeated. Activity calls are given as the source filed them. The rule behind the calls is not given here.

Voltage-gated inwardly rectifying potassium channel KCNH2, sequence (Q12809 whole entry): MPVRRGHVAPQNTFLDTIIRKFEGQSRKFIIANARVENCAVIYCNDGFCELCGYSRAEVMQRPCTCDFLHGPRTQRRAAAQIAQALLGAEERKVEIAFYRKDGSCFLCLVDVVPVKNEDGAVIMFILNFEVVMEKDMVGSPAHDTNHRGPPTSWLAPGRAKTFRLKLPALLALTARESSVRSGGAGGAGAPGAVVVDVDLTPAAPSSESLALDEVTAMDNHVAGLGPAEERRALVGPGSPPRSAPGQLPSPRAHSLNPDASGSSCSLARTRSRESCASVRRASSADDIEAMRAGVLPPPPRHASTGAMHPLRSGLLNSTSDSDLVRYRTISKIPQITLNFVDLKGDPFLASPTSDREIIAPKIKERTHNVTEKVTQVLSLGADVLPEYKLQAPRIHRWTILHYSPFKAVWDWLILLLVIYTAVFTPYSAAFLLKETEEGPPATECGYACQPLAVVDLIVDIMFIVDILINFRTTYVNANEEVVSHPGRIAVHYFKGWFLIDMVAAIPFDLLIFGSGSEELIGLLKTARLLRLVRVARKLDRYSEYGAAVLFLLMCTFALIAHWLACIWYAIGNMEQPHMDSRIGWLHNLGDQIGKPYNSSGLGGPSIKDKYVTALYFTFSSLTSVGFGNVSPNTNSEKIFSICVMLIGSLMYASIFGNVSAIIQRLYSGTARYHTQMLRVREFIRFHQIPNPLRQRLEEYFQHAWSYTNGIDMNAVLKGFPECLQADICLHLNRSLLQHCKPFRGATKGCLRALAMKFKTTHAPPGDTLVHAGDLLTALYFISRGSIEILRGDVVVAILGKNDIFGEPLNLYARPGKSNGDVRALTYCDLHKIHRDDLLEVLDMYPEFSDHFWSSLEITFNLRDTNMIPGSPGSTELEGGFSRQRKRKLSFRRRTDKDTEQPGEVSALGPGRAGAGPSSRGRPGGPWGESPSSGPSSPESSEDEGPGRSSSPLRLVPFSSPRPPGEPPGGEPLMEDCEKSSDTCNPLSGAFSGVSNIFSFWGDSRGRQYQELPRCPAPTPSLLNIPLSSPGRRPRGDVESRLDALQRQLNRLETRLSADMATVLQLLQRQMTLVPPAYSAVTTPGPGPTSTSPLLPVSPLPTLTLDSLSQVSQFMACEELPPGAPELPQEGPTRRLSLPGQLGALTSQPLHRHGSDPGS
Histone deacetylase 1, sequence (Q13547 whole entry): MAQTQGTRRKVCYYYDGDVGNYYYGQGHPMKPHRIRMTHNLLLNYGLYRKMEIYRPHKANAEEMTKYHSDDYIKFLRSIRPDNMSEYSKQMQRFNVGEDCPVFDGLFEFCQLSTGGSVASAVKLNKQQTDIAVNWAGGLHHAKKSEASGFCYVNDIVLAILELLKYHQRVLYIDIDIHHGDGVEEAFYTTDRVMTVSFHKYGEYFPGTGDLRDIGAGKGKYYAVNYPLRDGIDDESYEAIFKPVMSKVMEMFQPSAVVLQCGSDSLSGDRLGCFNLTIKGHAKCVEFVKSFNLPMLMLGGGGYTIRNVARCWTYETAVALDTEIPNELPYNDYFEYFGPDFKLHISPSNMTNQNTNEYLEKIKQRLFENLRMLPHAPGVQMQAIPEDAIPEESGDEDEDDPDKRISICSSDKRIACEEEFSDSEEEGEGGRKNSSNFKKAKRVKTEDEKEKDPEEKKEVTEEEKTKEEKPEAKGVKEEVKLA

Turning to `O=C(CCCCCN1C(=O)c2ccccc2N(Cc2ccccc2)C(=O)[C@@H]1Cc1ccccc1)NO`, the Papp – broadly, a coefficient for how fast a substance crosses the barrier – in data set [1] (MDCK, read-out: Papp) is 10.9 ×10⁻⁶ cm/s; in data set [3] (Caco-2, read-out: Papp), 14.4 ×10⁻⁶ cm/s. Also, in data set [2], the concentration for half-maximal inhibition (IC50) (usually the point on the concentration scale where inhibition reaches its midpoint) was 2230 nM.

On to `Cc1cc(C)cc(C(=O)N(CCCCCC(=O)NO)CC(=O)NCc2ccccc2)c1`, for which the IC50 in data set [4] amounted to 135 nM; in [5] it was 700 nM; in data set [6], 61 nM; in data set [7], 330 nM; in [8] it was 410 nM; in data set [9], 1410 nM. For the same molecule, the IC50 is 24.7 nM in [10]; 630 nM in [11]; 26 nM in data set [12]; 7330 nM in [13]; 1850 nM in data set [14]; 350 nM in data set [15]. In addition, in [16], the concentration for half-maximal inhibition (IC50) was 370 nM.

In the case of `CN(C)c1ccc(C(=O)N(CC(=O)NC2CCCCC2)Cc2ccc(C(=O)NO)cc2)cc1`, the Papp in data set [1] (MDCK, read-out: Papp) is 6.6 ×10⁻⁶ cm/s; in data set [1] (mdck) it was 5.8 ×10⁻⁶ cm/s; in [3] (Caco-2, read-out: Papp) it was 9.8 ×10⁻⁶ cm/s; in data set [3] (caco-2) it was 10.1 ×10⁻⁶ cm/s. Moreover, the 50% inhibitory concentration (IC50) in [2] was 21500 nM and 52100 nM.

In the case of `CN(C)c1ccc(C(=O)N(CCCCCC(=O)NO)CC(=O)NCc2ccccc2)cc1`, the inhibition result in data set [17] and in data set [25] was “Dose-dependent effect” each time. Also, the IC50 is 281 nM in data set [4]; 440 nM in data set [5]; 66 nM in [6]; 470 nM in data set [7]; 350 nM in [8]; 1130 nM in data set [9]. Moreover, the 50% inhibitory concentration (IC50) in data set [10] was 25 nM; in [11], 480 nM; in [12], 6.5 nM; in data set [13] it was 2750 nM; in data set [14] it was 1620 nM; in data set [15] it was 320 nM. The IC50 in data set [16] turned out to be 270 nM. The Activity result in data set [18] and in data set [21] was “Non-Toxic” throughout. Besides, the apparent permeability (Papp) in data set [1] (MDCK, read-out: Papp) is 7.3 ×10⁻⁶ cm/s; in [1] (mdck), 10.6 ×10⁻⁶ cm/s; in [3] (caco-2), 8.2 ×10⁻⁶ cm/s and 20 ×10⁻⁶ cm/s. Moreover, the inhibition entry in data set [19], in data set [20], in data set [22], in data set [23], in data set [24] and in data set [26] was “Active” throughout.

Regarding `Cc1cc(C)cc(C(=O)N(CCCCCC(=O)NO)CC(=O)NC2CCCCC2)c1`, the half-inhibitory concentration (IC50) in data set [4] came out at 214 nM; in data set [5], 1130 nM; in data set [6], 84 nM; in [7], 160 nM; in data set [8], 640 nM; in data set [9], 1140 nM. Also, the IC50 in data set [10] was determined as 27.4 nM; in [11] it was 880 nM; in [12], 60 nM; in data set [13], 7400 nM; in [14], 3810 nM; in [15], 930 nM. The molecule also came in with an IC50 in [16] of 710 nM.
